Reference: patent US11492325B2, “Compounds as inhibitors of sodium channels” (Human BioMolecular Research Institute, priority 2016, dated 2022)
Counter-ions that a name gives are not always drawn.

Legend:
[1] = tested on: normal human induced pluripotent stem cell (hiPSC) cardiomyocyte; conditions: normal hiPSC cardiomyocytes; for WT-Fold Prolongation: APD
[2] = tested on: cardiomyocytes derived from hiPSCs from a LQTS3 patient; conditions: LQT3 cardiomyocytes
[3] = target: Nav1.5 sodium channel, peak current (INaP) (Homo sapiens, UniProt Q14524, form not given); experiment: in vitro
Protocol: (§1) This provided data to investigate the physiology and action of target compounds on individual ion channels. The assay used standardized protocols for culturing and conducting conventional whole cell recording that have been previously developed for both current and voltage-clamp to characterize action potentials using transfected cells. Briefly, the Nav1.5 sodium channel was transfected into HEK293 cells. […] Briefly, cells were plated on 0.1% gelatin-coated 35-mm plastic Petri dishes. […] Data was reported as IC50 values±STD (Table 1).

[4] = target: Nav1.5 sodium channel transfected into HEK293 cells (Homo sapiens, UniProt Q14524); experiment: in vitro
Protocol: as §1

[5] = target: hERG potassium channel (IKr) (Homo sapiens, UniProt Q12809); experiment: Automated patch clamp, hERG (IKr) expressed in CHO cells; conditions: for IC50: hERG (IKr) IC50, CHO cells
Chain of hERG potassium channel (IKr) (Q12809 whole entry): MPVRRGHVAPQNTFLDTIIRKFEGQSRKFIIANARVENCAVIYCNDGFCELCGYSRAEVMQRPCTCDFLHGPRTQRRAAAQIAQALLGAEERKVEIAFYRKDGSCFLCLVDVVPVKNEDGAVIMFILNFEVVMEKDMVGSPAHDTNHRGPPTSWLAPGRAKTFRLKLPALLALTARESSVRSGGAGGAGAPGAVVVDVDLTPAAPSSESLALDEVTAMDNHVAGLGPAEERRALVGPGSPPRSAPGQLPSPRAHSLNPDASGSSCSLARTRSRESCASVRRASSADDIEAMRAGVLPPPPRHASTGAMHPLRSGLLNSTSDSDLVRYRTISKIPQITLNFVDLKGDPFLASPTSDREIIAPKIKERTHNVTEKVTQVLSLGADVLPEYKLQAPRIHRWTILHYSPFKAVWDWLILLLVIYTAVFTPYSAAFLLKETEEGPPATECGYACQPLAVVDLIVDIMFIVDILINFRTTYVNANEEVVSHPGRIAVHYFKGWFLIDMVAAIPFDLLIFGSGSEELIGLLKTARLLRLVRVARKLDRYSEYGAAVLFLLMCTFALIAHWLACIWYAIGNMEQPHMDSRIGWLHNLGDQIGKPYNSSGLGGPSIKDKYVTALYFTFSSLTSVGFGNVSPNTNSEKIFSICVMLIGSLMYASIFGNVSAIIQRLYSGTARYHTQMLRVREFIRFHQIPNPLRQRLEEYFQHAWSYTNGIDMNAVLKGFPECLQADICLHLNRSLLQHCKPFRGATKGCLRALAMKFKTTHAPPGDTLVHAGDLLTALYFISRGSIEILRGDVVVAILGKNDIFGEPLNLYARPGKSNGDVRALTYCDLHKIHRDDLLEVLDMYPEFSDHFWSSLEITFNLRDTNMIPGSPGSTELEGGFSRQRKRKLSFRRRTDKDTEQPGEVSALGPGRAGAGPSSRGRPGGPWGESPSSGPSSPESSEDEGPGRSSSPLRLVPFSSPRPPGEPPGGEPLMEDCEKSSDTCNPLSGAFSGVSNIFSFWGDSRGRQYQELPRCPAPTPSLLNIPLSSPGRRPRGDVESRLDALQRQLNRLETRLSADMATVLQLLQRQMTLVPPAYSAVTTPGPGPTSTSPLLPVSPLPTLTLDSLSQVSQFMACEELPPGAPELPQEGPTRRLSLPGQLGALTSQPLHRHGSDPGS

[6] = tested on: cardiomyocytes derived from hiPSCs from a LQTS3 patient; experiment: cells; conditions: Homo sapiens, Cardiomyocyte, read-out: LQT-IC50 (uM)-Shortening
[7] = ratio peak/late IC50, Example 2

| SMILES | WT-Fold Prolongation [1] | Cessation of Beating [1] | WT-Prolongation Dose [1] | LQT-Cessation Dose [2] | LQT-Fold Shortening [2] | IC50 ([3]; Peak Na+ (INaP) IC50) | IC50 [4] | DNap/NaL [4, 7] | IC50 ([5]; Example 2) | DKr/NaL ([5]; ratio, Example 2) | DNaP/Kr ([5]; ratio, Example 2) | WT-EAD Dose [1] | IC50 [6] | IC50 [5] | DNap/NaL ([4]; ratio peak IC50/late IC50) | DKr/NaL ([5]; ratio hERG IC50/late Na IC50) | DNaP/Kr ([5]; ratio peak Na IC50/hERG IC50) | also measured |
| --- | --- | --- | --- | --- | --- | --- | --- | --- | --- | --- | --- | --- | --- | --- | --- | --- | --- | --- |
| Cc1cccc(OCC(N)c2ccccc2)c1C (stereo not drawn) [Compound 35, 2-(2,3-dimethylphenoxy)-1-phenylethanamine] | None | 133 µM | None | 66 µM | 1.406 | 10.9 µM | 1.03 µM | 10.6 | 9.2 µM | 8.9 | 1.2 |  |  |  |  |  |  |  |
| Cc1cccc(C)c1OC[C@@H](C)N [Compound 2a, (R)-(−)-Mexiletine Hydrochloride, reference compound] |  |  |  | None |  | 128 µM |  |  |  |  |  | 200 µM | 0.96 µM | 54 µM |  |  |  |  |
| Cc1cccnc1OCC(O)c1ccccc1 (stereo not drawn) [Compound 21] | None | None | None | None | 1.23 | 129 µM |  | 6.1 | > 100 µM | >4.7 | 1.3 |  |  | 100 µM | 6.1 | 4.7 | 1.3 |  |
| Cc1cccc(C)c1OCC(N)C1CC1 (stereo not drawn) [Compound 10] | 2.262 |  |  | 200 µM | 1.162 | 130 µM | 7.3 µM |  |  |  |  | 66 µM | 0.8 µM | 30 µM | 18.0 | 4.1 | 4.3 |  |
| Cc1cccc(C)c1OCC(N)C(C)(C)C (stereo not drawn) [Compound 12, 1-(2,6-dimethylphenoxy)-3,3-dimethylbutan-2-amine] | >4 |  |  | 22 µM | 1.182 | 91 µM | 11 µM |  |  |  |  | 7.4 µM | 0.648 µM | 49 µM | 8.3 | 4.5 | 1.9 |  |
| Cc1cc(C)cc(OCC(N)C2CC2)c1.Cl (stereo not drawn) [Compound 91] |  |  |  |  |  | 76.8 µM | 10 µM | 7.68 | 45.8 µM | 4.6 | 1.7 |  |  | 45.8 µM | 7.7 | 4.6 | 1.7 |  |
| Cc1cc(C)cc(OCC(C)N)c1 (stereo not drawn) [Compound 55] | 1.159 | None |  | 200 µM | 1.232 | 154 µM | 17 µM |  |  |  |  |  | 4.45 µM | 49 µM | 9.1 | 2.9 | 3.1 |  |
| Cc1ccccc1OCC(C)N (stereo not drawn) [Compound 9, 1-(2-Methylphenoxy)propan-2-amine] | 2.363 |  |  | None | 1.28 | 162 µM | 52 µM |  |  |  |  | 200 µM | 0.76 µM | 98 µM | 3.1 | 1.9 | 1.7 |  |
| NC(COc1ccccc1C(F)(F)F)c1ccccc1 (stereo not drawn) [Compound 27, 1-phenyl-2-(2-(trifluoromethyl)phenoxy)ethanamine] | None | 66 µM | None | 66 µM | 1.783 | 41.1 µM | 1.04 µM |  |  |  |  |  | > 0.8 µM | 37.5 µM | 39.5 | 36.1 | 1.1 |  |
| Cc1ccc(OCC(N)c2ccccc2)c(C)c1.Cl (stereo not drawn) [Compound 66] | None | 66 µM | None | 66 µM | 1.192 | 22.1 µM |  | 10.7 | 5.9 µM | 2.8 | 3.7 |  | 0.486 µM | 5.9 µM | 10.5 | 2.8 | 3.7 |  |
| Cc1cccc(C)c1OCC(C)N (racemic) [racemic Mexiletine] |  |  |  |  |  | 183 µM |  |  | 54 µM |  |  |  | 1.83 µM |  |  |  |  |  |
| Cc1cccc(C)c1OCC(C)N (racemic) [Compound 1, Mexiletine, reference compound] |  |  |  | None |  | 183 µM |  |  |  |  |  | 200 µM | 1.83 µM | 54 µM |  |  |  |  |
| COCCNC(COc1ccccc1C)c1ccccc1.Cl (stereo not drawn) [Compound 90] | None | 133 µM | None | 133 µM | 1.1 |  |  | 11.8 | 25.3 µM | 1.32 | 1.32 |  |  |  | 11.8 |  |  | IC50 [3]: 33.4 µM; IC50 ([4]; read-out: Late Na+ (INaL) IC50, patch clamp, transfected cells): 2.83 µM; IC50 ([4]; read-out: Late Na+ (INaL) IC50, transfected cells, Example 2): 2.83 µM; IC50 ([4]; read-out: Peak Na+ (INaP) IC50, transfected cells, Example 2): 33.4 µM |
| Cc1cccc(C)c1OC[C@H](C)N [Compound 2b, (S)-(+)-Mexiletine Hydrochloride, reference compound] |  |  |  | None |  | 129 µM |  |  |  |  |  | 200 µM | 0.8 µM | 84 µM |  |  |  |  |
| Cc1cccnc1OCC(C)N (stereo not drawn) [Compound 100, 1-(-3-Methyl-pyridin-2-yloxy)propan-2-amine] | None | None | None | 22 µM | 1.13 | 252 µM |  |  |  |  |  |  |  |  |  |  |  |  |
| CCCc1ccccc1OCC(N)c1ccccc1 (stereo not drawn) [Compound 23, 1-phenyl-2-(2-propylphenoxy)ethanamine] | None | 22 µM | None | 22 µM | 1.32 |  |  |  |  |  |  |  | 0.78 µM |  |  |  |  |  |
| COc1ccccc1OCC(N)c1ccccc1 (stereo not drawn) [Compound 26, 2-(2-methoxyphenoxy)-1-phenylethanamine] | 2.502 | 22 µM |  | 133 µM | 1.482 |  |  |  |  |  |  | 7.4 µM | 0.13 µM |  |  |  |  |  |
| Cc1cc(C)cc(OCC(N)C2CCCCC2)c1.Cl (stereo not drawn) [Compound 89] |  |  |  |  |  | 24.3 µM |  | 15.3 | 4.9 µM | 3.1 | 5.0 |  |  | 4.9 µM | 15.2 | 3.1 | 5.0 |  |
